Assay results as given in ChEMBL document CHEMBL5365469, “Design, synthesis and antitumor effects of novel benzimidazole derivatives as PI3K inhibitors” (Bioorg Med Chem Lett, 2023).

Experiments:
[1] = test system: A549; test: Antiproliferative activity against human A549 cells assessed as inhibition of cell growth by MTT assay; assay type: functional, cell-based
[2] = test system: HepG2; test: Antiproliferative activity against human HepG2 cells assessed as inhibition of cell growth by MTT assay; assay type: functional, cell-based
[3] = test system: SiHa; test: Antiproliferative activity against human SiHa cells assessed as inhibition of cell growth by MTT assay; assay type: functional, cell-based
[4] = test system: HCT-116; test: Antiproliferative activity against human HCT-116 cells assessed as inhibition of cell growth by MTT assay; assay type: functional, cell-based
[5] = test system: PC-3; test: Antiproliferative activity against human PC-3 cells assessed as inhibition of cell growth by MTT assay; assay type: functional, cell-based
[6] = test system: MCF7; test: Antiproliferative activity against human MCF7 cells assessed as inhibition of cell growth by MTT assay; assay type: functional, cell-based
[7] = Cytotoxicity against human L02 cells assessed as inhibition of cell growth by MTT assay; assay type: toxicity, cell-based
[8] = test system: A549; test: Induction of apoptosis in human A549 cells assessed as increase in apoptotic cells at 1.5 uM incubated for 48 hrs by Annexin V-FITC/PI staining analysis relative to control; assay type: functional
[9] = test system: A549; test: Induction of apoptosis in human A549 cells assessed as increase in apoptotic cells at 3 uM incubated for 48 hrs by Annexin V-FITC/PI staining analysis relative to control; assay type: functional
[10] = test system: A549; test: Induction of apoptosis in human A549 cells assessed as increase in apoptotic cells at 6 uM incubated for 48 hrs by Annexin V-FITC/PI staining analysis relative to control; assay type: functional
[11] = test system: A549; test: Induction of cell cycle arrest in human A549 cells assessed as accumulation of cells at G0/G1 phase at 1.5 uM by FACS analysis ( Rvb = 49.93%); assay type: functional
[12] = test system: A549; test: Induction of cell cycle arrest in human A549 cells assessed as accumulation of cells at S phase at 1.5 uM by FACS analysis ( Rvb = 40.71%); assay type: functional
[13] = test system: A549; test: Induction of cell cycle arrest in human A549 cells assessed as accumulation of cells at G2/M phase at 1.5 uM by FACS analysis ( Rvb = 9.35%); assay type: functional
[14] = test system: A549; test: Induction of cell cycle arrest in human A549 cells assessed as accumulation of cells at G0/G1 phase at 3 uM by FACS analysis ( Rvb = 49.93%); assay type: functional
[15] = test system: A549; test: Induction of cell cycle arrest in human A549 cells assessed as accumulation of cells at S phase at 3 uM by FACS analysis ( Rvb = 40.71%); assay type: functional
[16] = test system: A549; test: Induction of cell cycle arrest in human A549 cells assessed as accumulation of cells at G2/M phase at 3 uM by FACS analysis ( Rvb = 9.35%); assay type: functional
[17] = test system: A549; test: Induction of cell cycle arrest in human A549 cells assessed as accumulation of cells at G0/G1 phase at 6 uM by FACS analysis ( Rvb = 49.93%); assay type: functional
[18] = test system: A549; test: Induction of cell cycle arrest in human A549 cells assessed as accumulation of cells at S phase at 6 uM by FACS analysis ( Rvb = 40.71%); assay type: functional
[19] = test system: A549; test: Induction of cell cycle arrest in human A549 cells assessed as accumulation of cells at G2/M phase at 6 uM by FACS analysis ( Rvb = 9.35%); assay type: functional
[20] = test system: A549; test: Inhibition of PI3K signalling pathway in human […] cells assessed as decrease in phosphorylated PI3K level by Western blot assay; assay type: cell-based; conditions: dose 1.5-6 µM
[21] = test system: A549; test: Inhibition of PI3K signalling pathway in human […] cells assessed as decrease in phosphorylated AKT level by Western blot assay; assay type: cell-based; conditions: dose 1.5-6 µM

IC50 [1] | IC50 [2] | IC50 [4] | IC50 [5] | IC50 [6] | Compound | IC50 [3] | also measured
8.36 µM | 13 µM | 3.11 µM | 3.74 µM | 21.7 µM | COc1cc2nc(-c3cc(OC)c(OC)cc3OC)[nH]c2cc1/C=C/C(=O)NC(C)(C)C | 3.48 µM | –
1.55 µM | 88.7 µM | 1.68 µM | 25.5 µM | 2.01 µM | COc1cc2nc(-c3cc(OC)c(OC)cc3OC)[nH]c2cc1C#Cc1ccccc1F | 9.36 µM | IC50 [7]: 41.5 µM; Activity [8]: 28.97%; Activity [9]: 61.73%; Activity [10]: 63.1%; Activity [11]: 54.14%; Activity [12]: 37.71%; Activity [13]: 8.15%; Activity [14]: 54.95%; Activity [15]: 37.22%; Activity [16]: 7.83%; Activity [17]: 60.61%; Activity [18]: 32.41%; Activity [19]: 6.64%; inhibition [20]: Dose-Dependent Effect; inhibition [21]: Dose-Dependent Effect
> 100 µM | 94.8 µM | > 100 µM | > 100 µM | > 100 µM | COc1ccc(C#Cc2cc3[nH]c(-c4ccc(OC)c(OC)c4OC)nc3cc2OC)cc1 | > 100 µM | –
> 100 µM | > 100 µM | 15.3 µM | 19.6 µM | > 100 µM | COc1cc2nc(-c3ccc(OC)c(OC)c3OC)[nH]c2cc1/C=C/C(=O)NC(C)(C)C | 38 µM | –
> 100 µM | > 100 µM | 67.8 µM | 37.6 µM | > 100 µM | COc1cc2nc(-c3ccc(OC)c(OC)c3OC)[nH]c2cc1/C=C/C(=O)N1CCOCC1 | 76 µM | –
93.3 µM | > 100 µM | 29 µM | 22.6 µM | 77.8 µM | COc1cc2nc(-c3cc(OC)c(OC)cc3OC)[nH]c2cc1/C=C/C(N)=O | 5.27 µM | –
14.8 µM | 13.7 µM | 6.94 µM | 4.01 µM | 22 µM | CCOC(=O)/C=C/c1cc2[nH]c(-c3cc(OC)c(OC)cc3OC)nc2cc1OC | 9.8 µM | –
> 100 µM | > 100 µM | > 100 µM | 90.8 µM | > 100 µM | COc1cc2nc(-c3ccc(OC)c(OC)c3OC)[nH]c2cc1/C=C(\C)C(N)=O | > 100 µM | –
46.1 µM | 56.8 µM | 15 µM | 41.1 µM | > 100 µM | COc1cc2nc(-c3ccc(OC)c(OC)c3OC)[nH]c2cc1C#Cc1ccc(C(F)(F)F)cc1 | 86.6 µM | –
> 100 µM | 35.6 µM | 39.3 µM | 26.9 µM | > 100 µM | COc1cc2nc(-c3ccc(OC)c(OC)c3OC)[nH]c2cc1C#Cc1ccccc1F | > 100 µM | –
9.75 µM | 23.6 µM | 3.73 µM | 12.1 µM | 16.4 µM | Nc1cc(C(F)(F)F)c(-c2cc(N3CCOCC3)nc(N3CCOCC3)n2)cn1 [BUPARLISIB] | 7.18 µM | Activity [14]: 35.32%; Activity [15]: 27.99%; Activity [16]: 36.68%
85.4 µM | 36.8 µM | 38.4 µM | 46 µM | > 100 µM | COc1cc2nc(-c3ccc(OC)c(OC)c3OC)[nH]c2cc1/C=C/C(=O)NC(C)C | 72.3 µM | –
> 100 µM | > 100 µM | > 100 µM | > 100 µM | > 100 µM | COc1cc2nc(-c3ccc(OC)c(OC)c3OC)[nH]c2cc1/C=C/C(N)=O | > 100 µM | –
> 100 µM | > 100 µM | 53.9 µM | 65.4 µM | > 100 µM | COc1cc2nc(-c3ccc(OC)c(OC)c3OC)[nH]c2cc1/C=C/C(=O)NCCO | 22.6 µM | –
> 100 µM | > 100 µM | > 100 µM | > 100 µM | > 100 µM | COc1cc2nc(-c3cc(OC)c(OC)cc3OC)[nH]c2cc1/C=C/C(=O)NCCO | > 100 µM | –
> 100 µM | 96.8 µM | 81.4 µM | 22.7 µM | > 100 µM | COc1cc2nc(-c3ccc(OC)c(OC)c3OC)[nH]c2cc1C#Cc1ccccc1Cl | > 100 µM | –
33.1 µM | 44.6 µM | 4.47 µM | 19.5 µM | 66.7 µM | COc1cc2nc(-c3cc(OC)c(OC)cc3OC)[nH]c2cc1C#Cc1ccc(C(F)(F)F)cc1 | 24.4 µM | –
> 100 µM | 55.6 µM | 37.4 µM | 92.6 µM | > 100 µM | COc1cc2nc(-c3cc(OC)c(OC)cc3OC)[nH]c2cc1/C=C/C(=O)NC(C)C | > 100 µM | –
73.4 µM | 61 µM | 32.9 µM | 22.1 µM | 57.3 µM | COc1cc2nc(-c3cc(OC)c(OC)cc3OC)[nH]c2cc1/C=C(\C)C(N)=O | 33.5 µM | –
> 100 µM | 23.3 µM | > 100 µM | 57.3 µM | 27 µM | COc1cc2nc(-c3cc(OC)c(OC)cc3OC)[nH]c2cc1C#Cc1ccccc1Cl | 90.8 µM | –
9.7 µM | 88.7 µM | 3.02 µM | 20.2 µM | 7.14 µM | COc1ccc(C#Cc2cc3[nH]c(-c4cc(OC)c(OC)cc4OC)nc3cc2OC)cc1 | 33.4 µM | –
> 100 µM | 19.4 µM | 3.05 µM | 10.5 µM | 6.65 µM | COc1cc2nc(-c3cc(OC)c(OC)cc3OC)[nH]c2cc1C#Cc1ccc(Cl)cc1 | > 100 µM | –
> 100 µM | 87.4 µM | 12 µM | 8.45 µM | 15.5 µM | COc1cc2nc(-c3cc(OC)c(OC)cc3OC)[nH]c2cc1/C=C/C(=O)N1CCOCC1 | 6.57 µM | –
> 100 µM | 66.2 µM | 10.4 µM | 20.4 µM | > 100 µM | COc1cc2nc(-c3ccc(OC)c(OC)c3OC)[nH]c2cc1C#Cc1ccc(Cl)cc1 | > 100 µM | –
> 100 µM | > 100 µM | 75.1 µM | 84.9 µM | > 100 µM | CCOC(=O)/C=C/c1cc2[nH]c(-c3ccc(OC)c(OC)c3OC)nc2cc1OC | 80.6 µM | –
